The values that follow come from US20240246946A1, “MODULATORS OF TREX1” (Constellation Pharmaceuticals, Inc., priority 2021, published 2024).

The target of assay [1] is T1, full length human TREX1 (Homo sapiens, UniProt Q9NSU2).
T1 construct: N-terminally His-Tev tagged full length human TREX1; made in house; host or cells: E. coli
T1 sequence (Q9NSU2 1-314): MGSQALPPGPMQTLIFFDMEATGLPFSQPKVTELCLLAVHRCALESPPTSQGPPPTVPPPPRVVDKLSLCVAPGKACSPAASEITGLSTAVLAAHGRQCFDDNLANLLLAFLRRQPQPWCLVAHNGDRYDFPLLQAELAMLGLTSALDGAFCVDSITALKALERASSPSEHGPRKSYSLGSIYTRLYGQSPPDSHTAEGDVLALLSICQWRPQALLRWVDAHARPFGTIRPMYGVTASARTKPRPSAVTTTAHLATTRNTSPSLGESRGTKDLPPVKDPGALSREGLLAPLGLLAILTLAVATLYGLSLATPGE
The assay is described as follows: TREX1 Kinetics Assays (TR-FRET association and dissociation, global fit with Kintek Explorer). In kind it is binding. Particulars: for residence time / Kd: hTREX1, TR-FRET kinetics; for koff / kon: hTREX1, TR-FRET, 25° C., global fit. The method, then: Compound binding kinetics were assessed using a pair of TR-FRET assays which measure the proportion of protein bound to a biotinylated TREX1 inhibitor (“probe”).
N-terminally His-Tev tagged full length human TREX1 (expressed in E. coli and purified in house), complexed with Eu-W1024-anti-6×His (“Eu”; PerkinElmer) in reaction buffer (50 mM Tris, 150 mM NaCl, 2 mM DTT, 0.1 mg/mL BSA, 0.01% (w/v) Tween-20, 5 mM MgCl2, pH 7.4) was combined with an equal volume of test compound in reaction buffer and incubated at 25° C. Concentrations at this stage were 1 nM TREX1/Eu complex, and four concentrations of compound (diluted from 10 mM stocks in 100% DMSO). At defined time points, 18 μL of this mixture was withdrawn and combined with 2 μL probe to a final concentration of 1 μM probe. After incubating for 30 seconds, 18 μL was withdrawn and combined with 2 μL streptavidin-allophycocyanin (“SA-APC”; PerkinElmer) to a final concentration of 1.5 μM SA-APC. Fifteen μL of this mixture was then immediately transferred to a 384-well Black ProxiPlate Plus (PerkinElmer) and read in an EnVision plate reader (PerkinElmer) measuring fluorescence at 615 nm and 665 nm following excitation w/337 nm laser light. Final concentrations were 0.8 nM TREX1/Eu complex, 0.9 μM probe, and 1.5 μM SA-APC.
N-terminally His-Tev tagged full length human TREX1 (expressed in E. coli and purified in house), complexed with Eu-W1024-anti-6×His (“Eu”; PerkinElmer) in reaction buffer (50 mM Tris, 150 mM NaCl, 2 mM DTT, 0.1 mg/mL BSA, 0.01% (w/v) Tween-20, 5 mM MgCl2, pH 7.4) was combined with an equal volume of test compound in reaction buffer. Concentrations at this stage were 100 nM TREX1/Eu complex and 100 nM test compound (diluted from 10 mM stocks in 100% DMSO). Following an equilibration period of at least an hour at 25° C., this mixture was diluted 100-fold into reaction buffer containing 1 μM probe, and incubated at 25° C. At defined time points, 36 μL of the reaction mixture was withdrawn and combined with 4 μL streptavidin-allophycocyanin (“SA-APC”; PerkinElmer) to a final concentration of 1.5 μM SA-APC. Fifteen μL of this mixture was then immediately transferred to duplicate wells of a 384-well Black ProxiPlate Plus (PerkinElmer) and read in an EnVision plate reader (PerkinElmer) measuring fluorescence at 615 nm and 665 nm following excitation w/337 nm laser light.
The TR-FRET signal, a ratio of 665 nm/615 nm emitted light, was converted to fraction enzyme bound to test compound by normalizing to low signal (no enzyme or test compound) and high signal (no test compound) controls. Data from both association and dissociation experiments were fitted globally using Kintek Explorer software, which computes the rate constants directly.

In assay [2] the target is T2, hTREX1 (Homo sapiens, UniProt Q9NSU2).
T2 construct: host or cells: HCT116 dual cells
T2 sequence (Q9NSU2 1-314): T1 sequence (Q9NSU2 1-314)
The assay is described as follows: hTREX1 HCT116 Cell Assay (HCT116 dual cells, Lucia luciferase reporter of Type I interferon induction). Particulars: TREX1i 4 h before pBR322/BstNI transfection, read after 48 h. Format: cell-based. Put shortly: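 HCT116 dual cells carrying an ISRE-type STAT1/STAT2-driven secreted Lucia luciferase reporter were pretreated with TREX1 inhibitor for 4 h (≤0.1% DMSO), then transfected with pBR322/BstNI DNA (100 ng/well, Lipofectamine LTX). Luciferase in medium read after 48 h at 37 °C.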

The term residence time denotes how long the partners stay bound on average. For orientation: koff means a measure of how fast the partners let go of each other. Read a low koff as a long-lived complex. A word on the IC50: it is the point on the concentration scale where inhibition reaches its midpoint. High values mean weaker potency in that assay, low ones greater potency in that assay. Regarding `Cc1ncc(C(c2cc(F)ccc2C#N)C(C)c2nc(C(=O)Nc3cnoc3)c(O)c(=O)n2C)nc1C` (single isomer, unassigned) [Example 124 D1E2], in assay [1], the residence time came out at 741 min and the koff is 2.25e-05 s⁻¹. Besides, the IC50 in assay [2] was 10 to 100 nM.
The Kd is the equilibrium constant for the complex coming apart. A higher Kd goes with lower affinity. What is called kon is a measure of how fast the partners come together. A high value points to faster complex formation. In assay [1], `CC(c1nc(C(=O)Nc2cnoc2)c(O)c(=O)n1C)C(c1cnn(C)c1)c1ccccc1Cl` (single isomer, unassigned) [Example 77 D1E1] showed a Kd of 0.338 nM, a residence time of 215 min, a koff of 7.77e-05 s⁻¹ and a kon of 230000 M⁻¹ s⁻¹. The IC50 in assay [2] is 10 to 100 nM.
The like results for `Cc1cncc(C(c2ccccc2C#N)C(C)c2nc(C(=O)Nc3cnoc3)c(O)c(=O)n2C)n1` (single isomer, unassigned) [Example 53 D1E2] were, in that order, 0.255 nM, 483 min, 3.45e-05 s⁻¹, 135000 M⁻¹ s⁻¹ and < 10 nM.
The like results for `CC(c1nc(C(=O)Nc2cnoc2)c(O)c(=O)n1C)C(c1ccccc1C#N)c1cn(C)nc1C#N` (single isomer, unassigned) [Example 10 D1E1] were, in that order, 0.036 nM, 613 min, 2.72e-05 s⁻¹, 757000 M⁻¹ s⁻¹ and < 10 nM.
Regarding `Cc1cc(C(c2cc(F)ccc2C#N)C(C)c2nc(C(=O)Nc3cnoc3)c(O)c(=O)n2C)n(C)n1` (single isomer, unassigned) [Example 111 D1E2], in assay [1], the residence time came to 461 min and the koff is 3.62e-05 s⁻¹. In assay [2], this compound returned an IC50 of 10 to 100 nM.
On to `CC(c1nc(C(=O)Nc2cnoc2)c(O)c(=O)n1C)C(c1cnn(CC(F)(F)F)c1)c1ccccc1C#N` (single isomer, unassigned) [Example 22 D1E1], for which, in assay [1], binding was characterised by a dissociation constant (Kd) of 0.614 nM, the residence time is 256 min, the koff was 6.5e-05 s⁻¹ and the kon is 106000 M⁻¹ s⁻¹. Besides, the IC50 in assay [2] was < 10 nM.
Take `CC(c1nc(C(=O)Nc2cnoc2)c(O)c(=O)n1C)C(c1ccccc1C#N)c1cn(C)nc1F` (single isomer, unassigned) [Example 91 D1E1]: in assay [1], the residence time stood at 1820 min and the koff was 9.17e-06 s⁻¹. Moreover, the IC50 in assay [2] is < 10 nM.
Turning to `CC(c1nc(C(=O)Nc2cnoc2)c(O)c(=O)n1C)C(c1cnn(CC2CC2)c1)c1ccccc1C#N` (single isomer, unassigned) [Example 23 D1E2], in assay [1], binding was put at a Kd of 0.529 nM, the residence time amounted to 290 min, the koff was 5.73e-05 s⁻¹ and the kon is 108000 M⁻¹ s⁻¹. Further, in assay [2], the IC50 is 10 to 100 nM.
In assay [1], `Cc1ncc(C(c2ccccc2C#N)C(C)c2nc(C(=O)Nc3cnoc3)c(O)c(=O)n2C)nc1C` (single isomer, unassigned) [Example 81 D1E2] gave a residence time of 714 min and a koff of 2.33e-05 s⁻¹. The IC50 in assay [2] is < 10 nM.
For `Cc1nn(C)c(C)c1C(c1ccccc1C#N)C(C)c1nc(C(=O)Nc2cnoc2)c(O)c(=O)n1C` (single isomer, unassigned) [Example 78 D1E1] the same measures were 413 min, 4.03e-05 s⁻¹ and < 10 nM.
For the compound `CC(c1nc(C(=O)Nc2cnoc2)c(O)c(=O)n1C)C(c1cnn(C)c1)c1cc(F)ccc1C#N` (single isomer, unassigned) [Example 14 D1E2], in assay [1], binding was characterised by a dissociation constant (Kd) of 0.245 nM, the residence time came out at 310 min, the koff was 5.38e-05 s⁻¹ and the kon is 220000 M⁻¹ s⁻¹. The 50% inhibitory concentration (IC50) in assay [2] is < 10 nM.
